Assay results reported in patent US20230337677A1, “ARYL AND PYRIDYL AMIDE PESTICIDES AND COMPOSITIONS THEREOF” (University of Florida Research Foundation, Incorporated, priority 2019, published 2023).

Columns and labels:
[1] = tested on: Anopheles gambiae G3 sensitive strain; assay: Topical toxicity (24 hour mortality), An. gambiae G3; assay type: in vivo; details: topical application, 24 h mortality, female adults, susceptible strain G3
Protocol: (§1) The Aedes aegypti strains Orlando (sensitive) as well as the Puerto Rico (PR, resistant to permethrin) were used. The Anopheles gambiae (G3 sensitive strain, as well as Akron kdr (Akdr) strain, resistant to pyrethroids were also assessed. The larvae were provided by the USDA, Gainesville Fl, and raised in a pan with tap water maintained at 28° C. Larvae were fed a ground liver and yeast mixture, and pupae were placed in emergence cages. Adults were held at 28° C. and provided with cotton balls soaked in 10% sugar water for rearing and for all bioassays.
(§2) Female adults from 3 to 6 days were used for the experiments. The drug was dissolved in ethanol and then applied with a micro-applicator on the thorax, between the legs: 200 nL of drug per female mosquito, with different concentrations of the drug; 10 mosquitos were treated together per concentration per replicate, and put together in a small container with free access to sweet water. Mortality, i.e. no visible movement, was assessed 24 hours after treatment. Every compound was assessed on at least 3 different cohorts of mosquitoes, and the LD50 values and slopes were determined with Probit analysis, corrected with Abbott's formula.

[2] = tested on: Aedes aegypti strain Orlando (sensitive); assay: Topical toxicity (24 hour mortality), Ae. aegypti Orlando; assay type: in vivo; details: topical application, 24 h mortality, female adults, susceptible Orlando strain
Protocol: as §1, §2

[3] = tested on: Aedes aegypti strain Puerto Rico (PR, resistant to permethrin); assay: Topical toxicity (24 hour mortality), Ae. aegypti Puerto Rico; assay type: in vivo; details: for Ae. aegypti RR (resistance ratio): 24 h LD50 resistant strain (PR)/24 h LD50 susceptible strain (OR); for Ae. aegypti PR LD50: topical application, 24 h mortality, female adults, permethrin-resistant Puerto Rico strain
Protocol: as §1, §2

[4] = tested on: Anopheles gambiae Akron kdr (Akdr) strain, resistant to pyrethroids; assay: Topical toxicity (24 hour mortality), An. gambiae Akdr; assay type: in vivo; details: for An. gambiae RR (resistance ratio): 24 h LD50 resistant strain (AKDR)/24 h LD50 susceptible strain (G3); for An. gambiae AKDR LD50: topical application, 24 h mortality, female adults, pyrethroid-resistant Akdr strain
Protocol: as §1, §2

[5] = tested on: Aedes aegypti mosquitoes, insecticide-susceptible Orlando strain; assay: whole plant or invertebrate; details: 24 h; for mortality at 100 µg/cm2: read-out: 24 h % Mortality, 100 μg/cm^2
[6] = tested on: Aedes aegypti mosquitoes, insecticide-susceptible Orlando strain; assay type: in vivo; details: for 1 h % Repellency, 100 μg/cm^2: screened at 100 μg/cm^2, strain not given; for 1 h Repellency EC50, μg/cm^2: (OR); for vapor repellency / mortality, statement in words (Example 8): structure-activity analysis of Table 2
Summary of the method: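 Sixteen female mosquitoes per glass tube facing netting-shielded filter paper treated with acetone solutions (30-0.01 μg/ml; screen at 100 μg/cm^2), no contact. Proportion on treated side scored up to 60 min, then flight-out checked 30 min; mortality after 24 hr constant exposure.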

[7] = tested on: Aedes aegypti mosquitoes, insecticide-susceptible Orlando strain; details: 24 h; LC50 (OR)

SMILES	An. gambiae G3 LD50 [1] [ng/mg]	Ae. aegypti OR LD50 [2] [ng/mg]	Ae. aegypti RR (resistance ratio) [3]	Ae. aegypti PR LD50 [3] [ng/mg]	An. gambiae RR (resistance ratio) [4]	An. gambiae AKDR LD50 [4] [ng/mg]	mortality at 100 µg/cm2 [5] [%]	1 h % Repellency, 100 μg/cm^2 ([6]; 1 h) [%]	24 h LC50, μg/cm^2 [7] [μg/cm^2]	mortality at 10 µg/cm2 ([5]; read-out: 24 h % Mortality) [%]	1 h Repellency EC50, μg/cm^2 ([6]; 1 h) [μg/cm^2]	knockdown in 1 hr repellency test (XXkd) ([6]; screened at 10 μg/cm^2, 1 h, out of 16 females)	knockdown in 1 hr repellency test (XXkd = number of insects incapacitated out of 16 females) ([6]; 100 μg/cm^2, 1 h, out of 16 females)	vapor repellency / mortality, statement in words (Example 8) [6]
O=C(Nc1cc(Cl)nc(Cl)c1)C(F)F [GMR028]	43.1	266	3.2	854	0.7	28.2	59	12	–	–	–	–	–	–
O=C(Nc1ccnc(Br)c1)C(F)(F)C(F)(F)C(F)(F)C(F)(F)C(F)(F)F [GMR069]	–	2261	–	–	–	3425	13	−12	–	–	–	–	–	–
O=C(Nc1cc(F)c(F)c(F)c1)C(F)(F)C(F)(F)OC(F)(F)F [GMR100]	>1000	2374	–	–	–	>1000	–	–	15	21	3	10	–	–
CC(C)(C)OC(=O)N(C(=O)C(F)(F)F)c1c(Cl)cc(C(F)(F)F)cc1Cl [GMR151]	–	>5000	–	–	–	–	0	32	–	–	–	–	–	–
O=C(Nc1cc(Cl)nc(Cl)c1)C(F)(F)F [GMR029]	27.9	190	1.3	238	1.6	45.3	24	42	181	–	–	–	–	–
O=C(OCc1c(F)c(F)cc(F)c1F)C(F)(F)C(F)(F)C(F)(F)F [GMR090]	>100	>1000	–	–	–	>100	9	−12	–	–	–	–	–	–
O=C(Nc1cc(Cl)nc(Cl)c1)C(F)(F)C(F)(F)F [GMR030]	9.6	49	1.0	50	1.5	14.2	85	28	35	–	–	–	–	–
O=C(Nc1c(Cl)cc(C(F)(F)F)cc1Cl)C(F)(F)C(F)(F)F [GMR138, N-(2,6-dichloro-4-(trifluoromethyl)phenyl)-2,2,3,3,3-pentafluoropropanamide]	120.00	57.6	–	–	0.8	90.00	100	66	0.3	–	5.3	–	–	–
O=C(Nc1cc(Br)nc(Br)c1)C(F)(F)C(F)(F)C(F)(F)C(F)(F)C(F)(F)F [GMR056]	8.6	15	0.8	12.10	0.4	3.2	–	–	–	–	–	–	–	–
CNC(=O)Oc1ccccc1OC(C)C [Propoxur]	3.2	3.0	0.0	–	63	201	–	–	–	–	–	–	–	–
CCC(=O)N(C(=O)CC)c1cccc(OC(F)(F)F)c1 [GMR161]	–	–	–	–	–	–	72	74	52	–	36	–	–	–
CC(C)(C)OC(=O)N(C(=O)C(F)(F)C(F)(F)F)c1c(Cl)cc(C(F)(F)F)cc1Cl [GMR150]	–	629	–	–	–	–	100	–	12	–	–	–	11	–
CC(C(=O)Nc1cc(F)c(F)c(F)c1)(C(F)(F)F)C(F)(F)F [GMR139]	–	–	–	–	–	–	100	24	16.6	–	6.9	–	–	reduced repellency
CC(=O)N(C(C)=O)c1cccc(OC(F)(F)F)c1 [GMR159]	>1000	–	–	–	–	~1000	19	−26	–	–	–	–	–	–
O=C(CCl)Nc1ccccc1C(F)(F)F [MTFI-2-1A]	–	–	–	–	–	–	100	94	14	–	14	–	–	–
O=C(Nc1cc(C(F)(F)F)ccn1)C(F)(F)C(F)(F)C(F)(F)F [GMR085]	>100	>6000	–	–	–	>50	13	70	–	–	49	–	–	–
N#CC(F)(F)C(=O)Nc1cc(F)c(F)c(F)c1 [GMR102]	>100	2164	–	–	–	>100	22	74	–	–	28	–	–	moderate repellency and toxicity
O/N=C(\Nc1cc(Cl)nc(Cl)c1)C(F)(F)C(F)(F)C(F)(F)F [GMR104]	>100	393	–	–	–	–	0	12	–	–	–	–	–	–
O=C(Nc1cc(Cl)cc(Cl)c1)C(F)(F)C(F)(F)OC(F)(F)F [GMR099]	>1000	3279	–	–	–	>1000	81	74	–	–	–	–	–	–
O=C(Nc1c(Cl)cc(C(F)(F)F)cc1Cl)C(F)(F)F [GMR149]	–	251	–	–	–	–	81	44	–	–	–	–	–	–
C=CCCC(=O)Nc1ccccc1C(F)(F)F [MTFI-5-5D]	–	–	–	–	–	–	6	56	–	–	–	–	–	–
CN(C(=O)C(F)(F)C(F)(F)C(F)(F)F)c1cc(Cl)nc(Cl)c1 [GMR095]	1300.00	1576	–	–	0.6	775.00	100	84	14	–	10	–	–	–
O=C(NCc1cc(Cl)nc(Cl)c1)C(F)(F)C(F)(F)C(F)(F)F [GMR107]	–	2173	–	–	–	–	0	50	–	–	–	–	–	–
O=C(Nc1c(F)c(F)nc(F)c1F)C(F)(F)C(F)(F)C(F)(F)C(F)(F)C(F)(F)F [GMR057]	28.4	20	0.4	8.90	0.6	15.7	–	–	–	–	–	–	–	–
O=C(Nc1cc(Cl)nc(C(F)(F)F)c1)C(F)(F)C(F)(F)C(F)(F)C(F)(F)C(F)(F)F [GMR055]	11.0	10.5	0.6	5.90	0.4	4.0	–	–	–	–	–	–	–	–
